This is an account of results in patent publication US20130296455A1, “NOVEL COMPOUND, DYE AND COLORED PHOTOSENSITIVE COMPOSITION” (ADEKA CORPORATION, priority 2011, published 2013).

Assay type in all cases: physicochemical
One series in a line: Solubility in PGMEA. The note with it: PGMEA added dropwise to 0.1 g of compound; concentration when completely dissolved. The protocol: (§1) Bis(4-formylphenyl)phenylamine (0.90 g, 3 mmol), ethyl cyanoacetate (0.75 g, 6.6 mmol) and ethanol (1.26 g) were added to a reaction container and heated to 50° C. under stirring. Triethylamine (0.06 g, 0.6 mmol) was then added dropwise, a reaction was conducted at 50° C. for 2 hours, and the reactant was cooled to room temperature. The reaction solution was subjected to liquid separation with ethyl acetate/water, the organic layer was dried under a reduced pressure, and the precipitated solid was washed with hexane to thereby give 1.13 g (yield 95.2%) of a yellow powder. That the obtained yellow powder was the intended substance was confirmed by ^1H-NMR and IR. Furthermore, the solubility and absorption wavelength properties (absorption wavelength λmax and absorption coefficient ∈) of compound No. 1 were measured. PGMEA was added dropwise to 0.1 g of the compound under stirring, and the solubility was defined as the concentration at the time when PGMEA had completely dissolved the compound. Furthermore, the absorption wavelength properties were measured in a CHCl3 solution.

Series [1] in a line: Evaluation of heat-resistance by TG-DTA. The procedure: Compounds Nos. 1, 2, 5 and 46 and Comparative Compounds Nos. 1 and 2 obtained above were analyzed by TG-DTA to thereby measure the melting points and temperatures at 10% weight loss. The results are shown in [Table 4].
A short description of series [2]: Evaluation of absorption wavelength property in CHCl3 solution. The conditions noted are these: maximum absorption wavelength in CHCl3 solution. The procedure:
as §1
The maximum absorption wavelengths of Compounds Nos. 1, 2, 5 and 46 and Comparative Compounds Nos. 1 and 2 obtained above were each evaluated in a CHCl3 solution. The results are shown in [Table 5].

Series [3] is described as follows: Evaluation of heat-resistance by calcination of coating of colored alkali-developable photosensitive composition. The note with it: for relative intensity 230° C., 30 min: absorbance of coating at λmax after calcination 230° C.×30 min, before calcination (after exposure to light) = 100; for λmax: coating of colored alkali-developable photosensitive composition on glass substrate. The protocol:
No. 3 obtained above, and comparative colored alkali-developable photosensitive composition No. 1 were each applied to a glass substrate under conditions of 410 rpm×7 sec, and dried on a hot plate (90° C., 90 sec). The obtained coating was exposed to light by a ultrahigh pressure mercury lamp (150 mJ/cm^2). The coating after the exposure to light was calcined under conditions of 230° C.×30 min. The absorbance of the coating before the calcination (after the exposure to light) and the absorbance of the coating after the calcination at the maximum absorption wavelength (λmax) of the compound (dye) as used were measured, and considering the absorption of the coating before the calcination (after the exposure to light) as 100, the absorbance of the coating after the calcination closer to 100 was evaluated to give higher heat-resistance. The results are shown in [Table 6].

Regarding `CCOC(=O)/C(C#N)=C/c1ccc(N2CCN(c3ccc(/C=C(\C#N)C(=O)OCC)cc3)CC2)cc1` [Compound No. 5], the solubility in the series “Solubility in PGMEA” turned out to be 0.1 wt %. In series [1], the “temperatures at 10% weight loss” value was determined as 345 °C. The same molecule had a λmax in series [2] of 423 nm.
For `CCOC(=O)/C(C#N)=C/c1ccc(N(CC)CC)cc1` [Comparative Compound No. 1, reference compound], the “temperatures at 10% weight loss” value in series [1] was 259 °C. Further, the λmax in series [2] and in series [3] was 430 nm throughout. In addition, the “relative intensity 230° C., 30 min” value in series [3] was determined as 12.5.
Regarding `CCOCCOC(=O)/C(C#N)=C/c1ccc(N(CC)CC)cc1` [Comparative Compound No. 2, reference compound], in series [1], the “temperatures at 10% weight loss” value amounted to 252 °C. For the same molecule, in series [2], the λmax was determined as 432 nm.
In the case of `CCOC(=O)/C(C#N)=C/c1ccc(N(c2ccccc2)c2ccc(/C=C(\C#N)C(=O)OCC)cc2)cc1` [Compound No. 1], the solubility in the series “Solubility in PGMEA” came out at 4.6 wt %. Further, the “temperatures at 10% weight loss” value in series [1] was 355 °C. The molecule further came in with a λmax in series [2] of 460 nm. In series [3], the “relative intensity 230° C., 30 min” value stood at 94.9 and the λmax was found to be 458 nm.
The like results for `CCOC(=O)/C(C#N)=C/c1ccc(N(c2ccc(/C=C(\C#N)C(=O)OCC)cc2)c2ccc(/C=C(\C#N)C(=O)OCC)cc2)cc1` [Compound No. 2] were, in that order, 3.5 wt %, 370 °C, 452 nm, 98.5 and 452 nm.
The like results for `CCOC(=O)/C(C#N)=C/c1ccc(N(CC)CCCCCCN(CC)c2ccc(/C=C(\C#N)C(=O)OCC)cc2)cc1` [Compound No. 46] were, in that order, 0.5 wt %, 346 °C, 430 nm, 99.9 and 436 nm.
